Data published in the NIST ThermoML archive (doi:10.1021/je9002306).

Legend:
[1] = mn = molality of the nth substance listed, in mol/kg; conditions: 298.15 K, 101.3 kPa, Liquid, Vibrating tube method
[2] = cn = amount concentration of the nth substance listed, in mol/dm3; conditions: 298.15 K, 101.3 kPa, Liquid, Wayne-Kerr 6430B Auto Balance Bridge

CCCCCCCCCCCCn1cc[n+](C)c1.[Br-] [1-dodecyl-3-methylimidazolium bromide] + OCCO
Conditions | mass density [kg/m3] | molar conductivity [S·m2/mol]
[1], m1 = 0.003873 | 1109.91 | –
[1], m1 = 0.007663 | 1109.87 | –
[1], m1 = 0.01013 | 1109.85 | –
[1], m1 = 0.0133 | 1109.82 | –
[1], m1 = 0.0168 | 1109.78 | –
[1], m1 = 0.02023 | 1109.75 | –
[1], m1 = 0.03123 | 1109.63 | –
[1], m1 = 0.03429 | 1109.6 | –
[2], c1 = 0.000348 | – | 0.000654
[2], c1 = 0.0004233 | – | 0.000653
[2], c1 = 0.0004995 | – | 0.000652
[2], c1 = 0.0005785 | – | 0.00065
[2], c1 = 0.0006521 | – | 0.000649
[2], c1 = 0.0007213 | – | 0.000648
[2], c1 = 0.0008076 | – | 0.000646
[2], c1 = 0.0008687 | – | 0.000645
[2], c1 = 0.0009337 | – | 0.000644
[2], c1 = 0.001012 | – | 0.000643

CCCCCCCCn1cc[n+](C)c1.[Br-] [1-methyl-3-octylimidazolium bromide] + CN(C)C=O
Conditions | mass density [kg/m3] | molar conductivity [S·m2/mol]
[1], m1 = 0.0036 | 944.562 | –
[1], m1 = 0.00742 | 944.824 | –
[1], m1 = 0.01114 | 945.075 | –
[1], m1 = 0.01485 | 945.316 | –
[1], m1 = 0.01862 | 945.557 | –
[1], m1 = 0.02243 | 945.792 | –
[1], m1 = 0.02634 | 946.03 | –
[1], m1 = 0.03009 | 946.26 | –
[1], m1 = 0.03685 | 946.653 | –
[1], m1 = 0.04079 | 946.877 | –
[2], c1 = 0.0002813 | – | 0.007841
[2], c1 = 0.0003412 | – | 0.007808
[2], c1 = 0.0003997 | – | 0.007775
[2], c1 = 0.0004885 | – | 0.007732
[2], c1 = 0.0005571 | – | 0.0077
[2], c1 = 0.0006412 | – | 0.007663
[2], c1 = 0.0007099 | – | 0.007638
[2], c1 = 0.0007743 | – | 0.007612
[2], c1 = 0.000834 | – | 0.00759
[2], c1 = 0.0008925 | – | 0.007568

CCCCCCCCn1cc[n+](C)c1.[Br-] [1-methyl-3-octylimidazolium bromide] + C[S+](C)[O-]
Conditions | mass density [kg/m3] | molar conductivity [S·m2/mol]
[1], m1 = 0.003697 | 1095.43 | –
[1], m1 = 0.007705 | 1095.54 | –
[1], m1 = 0.01147 | 1095.63 | –
[1], m1 = 0.01568 | 1095.74 | –
[1], m1 = 0.01953 | 1095.84 | –
[1], m1 = 0.02373 | 1095.95 | –
[1], m1 = 0.02785 | 1096.05 | –
[1], m1 = 0.03185 | 1096.15 | –
[1], m1 = 0.03581 | 1096.25 | –
[1], m1 = 0.03956 | 1096.34 | –
[2], c1 = 0.0002816 | – | 0.003566
[2], c1 = 0.0003649 | – | 0.003551
[2], c1 = 0.0004495 | – | 0.00354
[2], c1 = 0.0005343 | – | 0.003529
[2], c1 = 0.000601 | – | 0.003521
[2], c1 = 0.000699 | – | 0.00351
[2], c1 = 0.0007785 | – | 0.003501
[2], c1 = 0.0008592 | – | 0.003493
[2], c1 = 0.0009426 | – | 0.003485

CCCCCCCCn1cc[n+](C)c1.[Br-] [1-methyl-3-octylimidazolium bromide] + OCCO
Conditions | mass density [kg/m3] | molar conductivity [S·m2/mol]
[1], m1 = 0.006765 | 1110.04 | –
[1], m1 = 0.007869 | 1110.06 | –
[1], m1 = 0.01325 | 1110.12 | –
[1], m1 = 0.0167 | 1110.22 | –
[1], m1 = 0.02074 | 1110.25 | –
[1], m1 = 0.02364 | 1110.34 | –
[1], m1 = 0.03075 | 1110.39 | –
[1], m1 = 0.03492 | 1110.42 | –
[1], m1 = 0.03798 | 1110.48 | –
[2], c1 = 0.0003384 | – | 0.000678
[2], c1 = 0.0004129 | – | 0.000677
[2], c1 = 0.0004841 | – | 0.000675
[2], c1 = 0.0005608 | – | 0.000674
[2], c1 = 0.0006367 | – | 0.000673
[2], c1 = 0.0007095 | – | 0.000672
[2], c1 = 0.0007842 | – | 0.000671
[2], c1 = 0.0008592 | – | 0.00067
[2], c1 = 0.0009615 | – | 0.000669
[2], c1 = 0.001054 | – | 0.000668

C[S+](C)[O-] [dimethyl sulfoxide] + CCCCCCCCCCCCn1cc[n+](C)c1.[Br-]
Conditions | mass density [kg/m3]
[1], m2 = 0 | 1095.35

C[S+](C)[O-] [dimethyl sulfoxide] + CCCCCCCCCCn1cc[n+](C)c1.[Br-]
Conditions | mass density [kg/m3]
[1], m2 = 0 | 1095.33

C[S+](C)[O-] [dimethyl sulfoxide] + CCCCCCCCn1cc[n+](C)c1.[Br-]
Conditions | mass density [kg/m3]
[1], m2 = 0 | 1095.33

CN(C)C=O [dimethylformamide] + CCCCCCCCCCCCn1cc[n+](C)c1.[Br-]
Conditions | mass density [kg/m3]
[1], m2 = 0 | 944.305

CN(C)C=O [dimethylformamide] + CCCCCCCCCCn1cc[n+](C)c1.[Br-]
Conditions | mass density [kg/m3]
[1], m2 = 0 | 944.305

CN(C)C=O [dimethylformamide] + CCCCCCCCn1cc[n+](C)c1.[Br-]
Conditions | mass density [kg/m3]
[1], m2 = 0 | 944.305
